Source: paper PMC9521028, “Lengthening the Guanidine–Aryl Linker of Phenylpyrimidinylguanidines Increases Their Potency as Inhibitors of FOXO3-Induced Gene Transcription” (ACS Omega, 2022)
≈ marks a conversion by molar mass, not a printed value. Entries after “also recorded” stand apart in the source; their conditions may differ.

Columns and labels:
[1] = Estimation of compound solubility in water (saturated solution, UV-vis); assay type: physicochemical; details: for solubility at 48 h: aqueous buffer, thermodynamic from solid, 20 mM phosphate (pH 6.5) and 50 mM KCl buffer at 23 °C
Experimental: To estimate the solubility, we prepared saturated solutions of the compounds by adding 5 mg of each selected compound to 700 μL of 20 mM phosphate buffer (pH 6.5) containing 50 mM KCl. After 48 h of gentle agitation at room temperature (RT), the solutions were spun down, and the supernatant was filtered through 0.2 μm of SPARTAN 13/0.2 RC filter units (Merck KgaA, Darmstadt, Germany) and diluted 100–200× in the same phosphate buffer. The diluted solutions were transferred into the quartz cuvette, recording UV–vis absorption spectra in the range from 200 to 600 nm on a UV-1800 UV/visible scanning spectrophotometer (Shimadzu, Kyoto, Japan) at room temperature. The compound concentrations were estimated by the single point calibration using the absorption at wavelengths higher than 240 nm outside of DMSO absorption of 2000× diluted 50 mM DMSO-dissolved stock solution in phosphate buffer.

[2] = target: T1, recombinant DNA-binding domain of human FOXO3 (residues 156–269, FOXO3-DBD) (Homo sapiens, UniProt O43524); experiment: Fluorescence polarization (FP) assay of FOXO3-DBD binding to FAM-labeled IRE dsDNA; details: compound 1 μM; 125 nM FOXO3-DBD, 25 nM FAM-dsDNA
T1 construct: DNA encoding human FOXO3-DBD (residues 156–269); GST (N, cleaved yes); made in house; host or cells: E. coli BL21(DE3)
Text: The FOXO3 inhibition potency of the phenylpyrimidinylguanidine derivatives was first examined in a fluorescence polarization (FP) assay using the recombinant DNA-binding domain of human FOXO3 (residues 156–269, denoted as FOXO3-DBD) and FAM-labeled dsDNA containing the insulin-response element (IRE) consensus motif (Figure S1).
The final concentration of DMSO in all mixtures was adjusted to 5% (v/v). Positive (only assay buffer and FAM-labeled oligonucleotide) and negative (FOXO3-DBD and FAM-labeled oligonucleotide) controls were analyzed on each plate. Milli polarization values (mP) were measured at an excitation wavelength of 485 nm and an emission wavelength of 530 nm.

[3] = tested on: FOXO3-induced apoptotic cell death in SH-EP/FOXO3 neuroblastoma cells; experiment: Resazurin early cell death evaluation assay; assay type: cell-based; details: for IC50: Neuroblastoma cell, 100 nM 4OHT, 24 h, approximate, toxicity prevented accurate determination, read-out: IC50, inhibition of FOXO3-induced cell death; for IC50 / concentration above which the compound is toxic (spontaneous cell death): SH-EP/FOXO3 cells; for fold lower IC50 than that of 5ca: resazurin assay, ratio to 5ca IC50 of ∼8 μM
Experimental: Moreover, we also attempted to determine the IC50 values of 5ci, 5cj, and 5db using a resazurin early cell death evaluation assay in cells expressing a conditional FOXO3 allele that triggers apoptotic cell death upon activation.
Neuroblastoma cells SH-EP/FOXO3 were seeded into 96-well plates and treated with concentrations 0.05, 0.1, 0.2, 0.39, 0.78, 1.56, 3.125, 6.25, 12.5, 18.75, and 25 μM of 5ca and its derivatives 30 min before activating ectopic FOXO3 by 100 nM 4OHT. For 5ca derivatives, concentrations above 3.125 μM had to be excluded from the analysis due to spontaneous cell death induction. Resazurin salt (Sigma-Aldrich s.r.o., St. Louis, Missouri) was diluted to a final concentration of 0.01% (wt/vol), and 20 μL of this dilution was added to 200 μL of the cell culture in each well 24 h after FOXO3 activation. Resazurin is reduced in viable cells to red-fluorescent resoflurin, which was quantified in a Hidex Chameleon—Multilabel Microplate Reader (Hidex, Turku, Finland) at filter settings 544 nm Ex/616 nm Em.

FOXO3 = tested on: FOXO3; set-up: method as in PMID 31591479, PMID 31789593; details: inhibit the transcriptional program of FOXO3; cited from earlier work
[4] = tested on: FOXO3 binding to the promoter region of DEPP1 in SH-EP/FOXO3 cells; experiment: DEPP1-luciferase reporter assay of FOXO3 transcriptional activity; assay type: cell-based; details: for potency in blocking FOXO3 binding to the promoter region of DEPP1: 25 and 12.5 μM compound; for potency in blocking FOXO3 binding to the promoter region of DEPP1, compared with 5ca: initial screen, 50 μM compound; for efficiency of blocking FOXO3 binding to the promoter region of DEPP1: lower concentrations, down to 0.78 μM; for inhibitory potency on target gene activation by FOXO3 (in words): summary of the reporter data, Figures 2, S2, S3; for inhibition of FOXO3-mediated transcription: lowest concentration tested, 0.78 μM
Experimental: (§1) The ability of these compounds to inhibit FOXO3 transcriptional activity was further examined by assessing their effect on FOXO3 binding to the promoter region of decidual protein induced by progesterone 1 (DEPP1) after transfecting a DEPP1-luciferase reporter plasmid into SH-EP neuroblastoma cells stably expressing a 4-hydroxy-tamoxifen (4OHT)-regulated FOXO3(A3)ERtm transgene. […] In parallel, the toxicity of the compounds was tested by assessing their effect on endogenous DEPP1 and actin promoters in SH-EP cells.
Transcriptional activation of the DEPP1 promoter by conditional FOXO3 was assessed after transfection of a DEPP1-luciferase reporter plasmid pGS c10orf10 Prom wt (DEPP1-LUC)[20] into SH-EP/FOXO3 cells using the JetPrime reagent (Polyplus, Berkeley). After 24 h of transfection, mTFP fluorescent protein expression from a cotransfected expression vector was assessed by live cell fluorescence microscopy to verify equal transfection rates before seeding cells into 24-well plates. After 48 h of transfection, the cells were pretreated with indicated concentrations of each compound (30 min) before adding 100 nM 4-hydroxy-tamoxifen (4OHT) for 3 h to activate ectopic FOXO3. Firefly-luciferase was analyzed using the Luciferase Assay System (Promega, Madison). Luminescence intensity was measured in a Hidex Chameleon—Multilabel Microplate Reader (Hidex, Turku, Finland).

[5] = tested on: endogenous DEPP1 and actin promoters in SH-EP cells; experiment: Toxicity control: endogenous DEPP1 and actin promoter luciferase reporters; assay type: cell-based; details: for effect on endogenous DEPP1 and actin promoters (toxicity markers): 0.78 μM, SH-EP cells
Experimental: as §1
For this purpose, 2 × 10^6 SH-EP cells were transfected with either a DEPP1-LUC-reporter plasmid or an actin-LUC reporter plasmid using JetPrime reagent (Polyplus, Berkeley). Actin-LUC was constructed by inserting a 1.3 kb fragment of the chicken β actin promoter into pGL3-luc reporter vector (Promega, Madison). After 24 h of transfection, the cells were seeded into 24-well plates. After another 24 h, the cells were pretreated with indicated concentrations of compound for 3.5 h. Firefly-luciferase was analyzed using the Luciferase Assay System (Promega, Madison). Luminescence intensity was measured in a Hidex Chameleon—Multilabel Microplate Reader (Hidex, Turku, Finland).

FOXO3-DBD = target: T2, FOXO3-DBD (Homo sapiens, UniProt O43524); experiment: NMR (1H STD and 1H-15N HSQC titration) of compound binding to FOXO3-DBD; details: 15 μM FOXO3-DBD, 1 mM compound, pH 6.5, 298 K
T2 construct: DNA encoding human FOXO3-DBD (residues 156–269); GST (N, cleaved yes); made in house; host or cells: E. coli BL21(DE3)
Experimental: STD experiment was performed at 298 K on a Bruker Avance III HD 850 MHz spectrometer (Bruker, Billerica, Massachusetts) equipped with a ^13C/^1H/^15N cryoprobe. The 550 μL sample contained 15 μM FOXO3-DBD and 1 mM 5cj in 20 mM phosphate buffer (pH 6.5) supplemented by 50 mM KCl and 10% ^2H2O. ^1H STD NMR was performed using a standard “stddiffesgp” pulse sequence with excitation sculpting and pulse-field gradients for water suppression. On-resonance irradiation was done at −0.54 ppm and off-resonance irradiation at 30 ppm, using a 50 ms shaped Eburp2.1000 pulse of power 40 dB for a saturation time of 3 s. The difference spectra were obtained by subtracting the on-resonance spectrum from the off-resonance spectrum. The spectra were analyzed using TopSpin software (v3.6).
2D ^1H–^15N HSQC spectra were acquired on both Bruker Avance III HD 850 MHz and Bruker Avance III 600 MHz (Bruker, Billerica, Massachusetts) spectrometers equipped with a ^13C/^1H/^15N cryoprobe. All HSQC experiments were measured at 298 K in Shigemi NMR tubes (Shigemi Co., Ltd., Tokyo, Japan) containing 350 μL of sample in 100 mM phosphate buffer (pH 6.5) supplemented with 50 mM KCl and 10% ^2H2O. […] All spectra were processed in TopSpin software (v3.6) and evaluated in Sparky software (v3.1).[43] CSP values obtained from 2D ^1H–^15N HSQC experiments were calculated using the following formula[44] […]

T2 sequence (O43524 156-269): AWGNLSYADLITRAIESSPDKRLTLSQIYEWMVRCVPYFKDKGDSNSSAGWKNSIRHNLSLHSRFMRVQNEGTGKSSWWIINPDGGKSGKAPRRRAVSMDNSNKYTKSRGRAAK
T1 sequence (O43524 156-269): as above

CCCOc1ccc(NC(=N)Nc2nc(C)cc(C)n2)cc1 [5ca, 1-(4,6-Dimethylpyrimidin-2-yl)-3-(4-propoxyphenyl)guanidine]
solubility at 48 h [1]: 2000 µM (≈ 599 µg/mL)
reduction of FOXO3-DBD binding to FAM-IRE dsDNA [2]: approximately 20%
IC50 [3]: ~8 µM
concentration above which the compound is toxic (spontaneous cell death) [3]: higher than 25 μM
concentration range of FOXO3 inhibition in cancer cells (FOXO3): low micromolar range

CCCOc1ccc(NC(=N)Nc2nc(C)cc(NCCc3ccccc3)n2)cc1 [5db, 1-(4-Methyl-6-(phenethylamino)pyrimidin-2-yl)-3-(4-propoxyphenyl)guanidine]
solubility in water (in words) [1]: low solubility; also recorded: very low solubility
solubility at 48 h [1]: 300 µM (≈ 121 µg/mL)
potency in blocking FOXO3 binding to the promoter region of DEPP1 [4]: the most potent compounds
potency in blocking FOXO3 binding to the promoter region of DEPP1, compared with 5ca [4]: more potent than 5ca
efficiency of blocking FOXO3 binding to the promoter region of DEPP1 [4]: more efficiently than 5cg, 5da, and 5dc
inhibitory potency on target gene activation by FOXO3 (in words) [4]: strongest inhibitor
toxicity compared with other derivatives ([5]; higher concentrations, Figure 2): more toxic than 5ci and 5cj at higher concentrations
IC50 [3]: ~0.5 µM
concentration above which the compound is toxic (spontaneous cell death) [3]: higher than 4 μM
fold lower IC50 than that of 5ca [3]: 8–16 ×

Cc1cc(C)nc(NC(=N)NCc2cccc3ccccc23)n1 [5ci, 1-(4,6-Dimethylpyrimidin-2-yl)-3-(naphthalen-1-ylmethyl)guanidine]
solubility in water (in words) [1]: low solubility
solubility at 48 h [1]: 700 µM (≈ 214 µg/mL)
potency in blocking FOXO3 binding to the promoter region of DEPP1 [4]: the most potent compounds
potency in blocking FOXO3 binding to the promoter region of DEPP1, compared with 5ca [4]: more potent than 5ca
efficiency of blocking FOXO3 binding to the promoter region of DEPP1 [4]: more efficiently than 5cg, 5da, and 5dc
inhibition of FOXO3-mediated transcription [4]: significantly inhibited
inhibitory potency on target gene activation by FOXO3 (in words) [4]: increased FOXO3 inhibition
effect on endogenous DEPP1 and actin promoters (toxicity markers) [5]: without any effect
IC50 [3]: ~0.5 µM
concentration above which the compound is toxic (spontaneous cell death) [3]: higher than 4 μM
fold lower IC50 than that of 5ca [3]: 8–16 ×

CCOc1cc(CC(=O)N[C@@H](CC(C)C)c2ccccc2N2CCCCC2)ccc1C(=O)O [repaglinide]
concentration range of FOXO3 inhibition in cancer cells (FOXO3): low micromolar range

CC1(C)[C@@H](OC(=O)CCC(=O)O)CC[C@]2(C)[C@H]3C(=O)C=C4[C@@H]5C[C@@](C)(C(=O)O)CC[C@]5(C)CC[C@@]4(C)[C@]3(C)CC[C@@H]12 [carbenoxolone]
concentration range of FOXO3 inhibition in cancer cells (FOXO3): low micromolar range

Cc1cc(C)nc(NC(=N)NCCc2ccccc2)n1 [5cj, 1-(4,6-Dimethylpyrimidin-2-yl)-3-phenethylguanidine]
solubility at 48 h [1]: 13000 µM (≈ 3500 µg/mL)
potency in blocking FOXO3 binding to the promoter region of DEPP1 [4]: the most potent compounds
efficiency of blocking FOXO3 binding to the promoter region of DEPP1 [4]: more efficiently than 5cg, 5da, and 5dc
inhibition of FOXO3-mediated transcription [4]: significantly inhibited
inhibitory potency on target gene activation by FOXO3 (in words) [4]: highest inhibitory potency
effect on endogenous DEPP1 and actin promoters (toxicity markers) [5]: without any effect
IC50 [3]: ~1 µM
concentration above which the compound is toxic (spontaneous cell death) [3]: higher than 4 μM
fold lower IC50 than that of 5ca [3]: 8–16 ×
1H STD NMR signals with FOXO3-DBD (FOXO3-DBD): STD signals were detected

CCCOc1ccc(NC(=N)Nc2nc(C)cc(NCc3ccccc3)n2)cc1 [5da, 1-(4-(Benzylamino)-6-methylpyrimidin-2-yl)-3-(4-propoxyphenyl)guanidine]
solubility at 48 h [1]: 200 µM (≈ 78.1 µg/mL)
potency in blocking FOXO3 binding to the promoter region of DEPP1 [4]: the most potent compounds
potency in blocking FOXO3 binding to the promoter region of DEPP1, compared with 5ca [4]: more potent than 5ca
